These results are taken from patent US9902722B2, “Biaryl kinase inhibitors” (BRISTOL-MYERS SQUIBB COMPANY, priority 2014, dated 2018).

The target of this assay is GST-Xa-hAAK1 (Homo sapiens (Human), UniProt Q2M2I8). The assay can be described thus: AAK1 Kinase Assay.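 Also: each compound tested across an eleven-point concentration series, with IC50 obtained through non-linear regression fitting.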 Type of assay: biochemical. Conditions: bacterially expressed GST-Xa-hAAK1 3.5 nM; ATP 22 μM; peptide substrate 1.5 μM; 3 hours at room temperature; Caliper LabChip 3000.
GST-Xa-hAAK1, sequence (Q2M2I8 whole entry): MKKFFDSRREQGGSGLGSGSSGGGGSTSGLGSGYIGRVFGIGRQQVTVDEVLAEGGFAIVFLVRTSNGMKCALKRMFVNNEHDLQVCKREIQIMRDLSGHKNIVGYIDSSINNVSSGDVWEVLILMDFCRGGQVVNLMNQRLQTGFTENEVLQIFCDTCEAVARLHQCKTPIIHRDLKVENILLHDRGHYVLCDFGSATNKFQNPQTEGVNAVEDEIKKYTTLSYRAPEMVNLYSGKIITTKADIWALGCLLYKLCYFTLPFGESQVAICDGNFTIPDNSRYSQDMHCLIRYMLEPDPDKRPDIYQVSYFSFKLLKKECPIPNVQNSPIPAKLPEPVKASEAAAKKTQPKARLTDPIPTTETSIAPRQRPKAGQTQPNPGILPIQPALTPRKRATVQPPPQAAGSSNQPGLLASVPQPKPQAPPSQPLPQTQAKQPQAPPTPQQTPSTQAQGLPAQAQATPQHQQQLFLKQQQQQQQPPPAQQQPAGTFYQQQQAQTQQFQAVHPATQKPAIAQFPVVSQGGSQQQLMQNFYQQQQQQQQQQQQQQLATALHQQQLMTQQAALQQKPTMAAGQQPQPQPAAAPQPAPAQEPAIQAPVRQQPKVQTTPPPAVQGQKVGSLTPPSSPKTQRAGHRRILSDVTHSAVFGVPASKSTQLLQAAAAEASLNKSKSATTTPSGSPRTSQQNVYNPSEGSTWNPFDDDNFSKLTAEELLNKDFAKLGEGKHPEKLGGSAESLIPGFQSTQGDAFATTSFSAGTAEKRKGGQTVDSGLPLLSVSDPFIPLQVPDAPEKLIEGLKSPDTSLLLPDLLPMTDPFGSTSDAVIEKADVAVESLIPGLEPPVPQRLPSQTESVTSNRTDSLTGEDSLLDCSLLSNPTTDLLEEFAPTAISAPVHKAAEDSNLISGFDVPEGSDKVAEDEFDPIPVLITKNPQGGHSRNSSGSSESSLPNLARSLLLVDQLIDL
`Cc1cc(-c2cc(C)c(OC[C@@](C)(N)CC(C)C)c(F)n2)ccn1` [Example 107, (S)-1-((6-fluoro-2′,4-dimethyl-[2,4′-bipyridin]-5-yl)oxy)-2,4-dimethylpentan-2-amine] came in with an IC50 of 50 nM.
The result for `Cc1cc(-c2cc(C(F)(F)F)c(OC[C@](C)(N)CC(C)C)cn2)ccn1` [Example 164, (R)-2,4-dimethyl-1-((2′-methyl-4-(trifluoromethyl)-[2,4′-bipyridin]-5-yl)oxy)pentan-2-amine] reads 254 nM.
Regarding `COC(=O)Nc1cc(-c2cc(OC)c(OC[C@@](C)(N)CC(C)C)cn2)ccn1` [Example 206, (S)-methyl (5-((2-amino-2,4-dimethylpentyl)oxy)-4-methoxy-[2,4′-bipyridin]-2′-yl)carbamate], the midpoint of inhibition, the IC50, lay at 4.3 nM.
For `CC(C)C[C@](C)(N)COc1ccc(-c2ccnc3cccnc23)cc1C#N` [Example 87, (S)-2-((2-amino-2,4-dimethylpentyl)oxy)-5-(1,5-naphthyridin-4-yl)benzonitrile], the IC50 was 0.87 nM.
In the case of `Cc1cc(-c2ccc(OC[C@@](C)(N)CC(C)C)c(C(F)F)n2)ccn1` [Example 119, (S)-1-((6-(difluoromethyl)-2′-methyl-[2,4′-bipyridin]-5-yl)oxy)-2,4-dimethylpentan-2-amine] it was 3.2 nM; in that of `COC(=O)Nc1cc(-c2ccc(OC[C@@](C)(N)CC(C)C)c(C)n2)c(F)cn1` [Example 155, (S)-methyl (5-((2-amino-2,4-dimethylpentyl)oxy)-5′-fluoro-6-methyl-[2,4′-bipyridin]-2′-yl)carbamate], 57 nM.
The result for `COC(=O)Nc1cc(-c2cc(C)c(OC[C@@](C)(N)CC(C)C)cn2)ccn1` [Example 68, (S)-methyl (5-((2-amino-2,4-dimethylpentyl)oxy)-4-methyl-[2,4′-bipyridin]-2′-yl)carbamate] reads 2.6 nM.
The result for `CC(C)C[C@](C)(N)COc1cnc(-c2ccnc3ccc(F)cc23)cc1C(F)F` [Example 132, (S)-1-((4-(difluoromethyl)-6-(6-fluoroquinolin-4-yl)pyridin-3-yl)oxy)-2,4-dimethylpentan-2-amine] reads 1.5 nM; that for `CC(=O)Nc1cc(-c2ccc(OC[C@@H](N)CC(C)C)c(C)c2)ccn1` [Example 7, (S)—N-(4-(4-((2-amino-4-methylpentyl)oxy)-3-methylphenyl)pyridin-2-yl)acetamide], 0.42 nM; that for `CC(C)C[C@](C)(N)COc1ccc(-c2ccnc(C(F)F)c2)cc1OC(F)(F)F` [Example 38, (S)-1-(4-(2-(difluoromethyl)pyridin-4-yl)-2-(trifluoromethoxy)phenoxy)-2,4-dimethylpentan-2-amine], 0.79 nM.
Molecule `Cc1nc(-c2ccnc(N)c2F)ccc1OC[C@@](C)(N)CC(C)C` [Example 153, (S)-5-((2-amino-2,4-dimethylpentyl)oxy)-3′-fluoro-6-methyl-[2,4′-bipyridin]-2′-amine] gave an IC50 of 1.9 nM.
In the case of `COC(=O)Nc1cc(-c2cc(Cl)c(OC[C@@](C)(N)CC(C)C)cn2)ccn1` [Example 237, (S)-methyl (5-((2-amino-2,4-dimethylpentyl)oxy)-4-chloro-[2,4′-bipyridin]-2′-yl)carbamate] it was 1.4 nM; in that of `Cc1cc(-c2cc(C)c(OC[C@@](C)(N)CC(C)C)c(C)n2)ccn1` [Example 212, (S)-2,4-dimethyl-1-((2′,4,6-trimethyl-[2,4′-bipyridin]-5-yl)oxy)pentan-2-amine], 1020 nM; in that of `CC(C)C[C@](C)(N)COc1ccc(-c2ncnc3ccccc23)cc1C(F)(F)F` [Example 214, (S)-2,4-dimethyl-1-(4-(quinazolin-4-yl)-2-(trifluoromethyl)phenoxy)pentan-2-amine], 0.86 nM.
The result for `CC(C)C[C@](C)(N)COc1ccc(-c2ccnc3cc(C#N)ccc23)cc1C(F)(F)F` [Example 89, (S)-4-(4-((2-amino-2,4-dimethylpentyl)oxy)-3-(trifluoromethyl)phenyl)quinoline-7-carbonitrile] reads 0.66 nM; that for `Cc1cc(-c2cc(Cl)c(OC[C@@](C)(N)CC(C)C)cn2)ccn1` [Example 238, (S)-1-((4-chloro-2′-methyl-[2,4′-bipyridin]-5-yl)oxy)-2,4-dimethylpentan-2-amine], 2.1 nM.
The result for `CC(C)C[C@](C)(N)COc1ccc(-c2ccnc3ccc(F)cc23)cc1C(F)(F)F` [Example 73, (S)-1-(4-(6-fluoroquinolin-4-yl)-2-(trifluoromethyl)phenoxy)-2,4-dimethylpentan-2-amine] reads 0.51 nM; that for `Cc1cc(-c2cnc(OC[C@@](C)(N)CC(C)C)c(F)c2)ccn1` [Example 97, (S)-1-((5-fluoro-2′-methyl-[3,4′-bipyridin]-6-yl)oxy)-2,4-dimethylpentan-2-amine], 142 nM; that for `CC(=O)Nc1cc(-c2cc(F)c(OC[C@@H](N)CC(C)C)c(C(F)(F)F)c2)ccn1` [Example 11, (S)—N-(4-(4-((2-amino-4-methylpentyl)oxy)-3-fluoro-5-(trifluoromethyl)phenyl)pyridin-2-yl)acetamide], 3.3 nM.
`COC(=O)Nc1cc(-c2cc(C(F)F)c(OC[C@@](C)(N)CC(C)C)cn2)ccn1` [Example 120, (S)-methyl (5-((2-amino-2,4-dimethylpentyl)oxy)-4-(difluoromethyl)-[2,4′-bipyridin]-2′-yl)carbamate] had a half-maximal inhibitory concentration (IC50) of 0.51 nM.
The result for `CC(=O)Nc1cc(-c2ccc(OC[C@@H](N)CC(C)C)c(F)c2)ccn1` [Example 1, (S)—N-(4-(4-((2-amino-4-methylpentyl)oxy)-3-fluorophenyl)pyridin-2-yl)acetamide] reads 2.7 nM.
In the case of `COC(=O)Nc1cc(-c2ccc(OC[C@@](C)(N)CC(C)C)c(C3CC3)c2)ccn1` [Example 33, (S)-methyl (4-(4-((2-amino-2,4-dimethylpentyl)oxy)-3-cyclopropylphenyl)pyridin-2-yl)carbamate] it was 0.32 nM; in that of `CC(C)C[C@](C)(N)COc1ccc(-c2ccnc(F)c2)cc1F` [Example 93, (S)-1-(2-fluoro-4-(2-fluoropyridin-4-yl)phenoxy)-2,4-dimethylpentan-2-amine], 33 nM; in that of `Cc1cc(-c2ccnc3ccc(F)cc23)cnc1OC[C@@](C)(N)CC(C)C` [Example 223, (S)-1-((5-(6-fluoroquinolin-4-yl)-3-methylpyridin-2-yl)oxy)-2,4-dimethylpentan-2-amine], 0.88 nM.
The result for `Cc1cc(-c2cnc(OC[C@@](C)(N)CC(C)C)c(C(F)(F)F)c2)ccn1` [Example 221, (S)-2,4-dimethyl-1-((2′-methyl-5-(trifluoromethyl)-[3,4′-bipyridin]-6-yl)oxy)pentan-2-amine] reads 4.1 nM; that for `CC(C)C[C@](C)(N)COc1ccc(-c2ccnc3ccccc23)c2ccccc12` [Example 209, (S)-2,4-dimethyl-1-((4-(quinolin-4-yl)naphthalen-1-yl)oxy)pentan-2-amine], 21 nM.
The molecule `CC(=O)Nc1cc(-c2ccc(OC[C@@](C)(N)CC(C)C)c(C(F)(F)F)c2)ccn1` [Example 19, (S)—N-(4-(4-((2-amino-2,4-dimethylpentyl)oxy)-3-(trifluoromethyl)phenyl)pyridin-2-yl)acetamide] gave an IC50 of 0.36 nM.
